The values below come from PubChem BioAssay (NCI).

Where “and” joins values, the source holds several entries; their conditions need not be identical. Identical values can stand only once.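 Growth conditions: 96-well plates. Treatment: test compound, 48 hours, 5 concentrations. Analysis: linear interpolation between bracketing concentrations; unreached endpoints set to highest concentration. Abbreviation: GI50, concentration required for 50% inhibition of growth. TGI denotes the concentration required for complete inhibition of growth.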

Test in all cases: DTP human tumour cell line panel, 48 h
In assay [1] the test system is A549 NSCLC.
The subject of assay [2] is CAKI-1 renal.
Assay [3] relates to HCC-2998 colon.
The test system of assay [4] is HL-60(TB) leukemia.
For assay [5], the system named is M14 melanoma.
Assay [6] relates to NCI-H226 lung.
The test system of assay [7] is PC-3 prostate.
In assay [8] the test system is RXF 393 renal.
The subject of assay [9] is SK-MEL-2 melanoma.
Assay [10] relates to SNB-19 CNS.

In general, GI50 refers to the concentration that inhibits growth by half. For orientation: TGI means the concentration at which net growth stops. A low value points to greater sensitivity of the cells.

As for `C=C1C(=O)OC2CC3(C)OC3C3OC3C3=CC(OC3=O)C12` (stereo not drawn), the GI50 was 21.3 µM in [1]; 1.48 µM in assay [2]; 17.4 µM in assay [3]; 2.13 µM in [4]; 8.75 µM in assay [5]; 8.82 µM in [6]. For the same molecule, the GI50 in assay [7] is 15.9 µM; in assay [8], 1.81 µM; in assay [9], 15.4 µM; in assay [10], > 100 µM. The TGI was 46.8 µM in assay [1]; 3 µM in assay [2]; 33.9 µM in assay [3]; 4.83 µM in [4]; 24.2 µM in [5]; 28.5 µM in [6]. Moreover, the TGI in assay [7] is 32.9 µM; in assay [8] it was 3.66 µM; in assay [9] it was 36.4 µM; in [10] it was > 100 µM.

As for `O=P1(O)c2ccccc2CS(=O)(=O)Cc2ccccc21`, the TGI in [1], in assay [2], in [3], in assay [4], in assay [5] and in assay [6] was > 100 µM throughout. The TGI in assay [7], in assay [8], in [9] and in [10] was > 100 µM each time.

Take `Cc1cc2c(C(C)C)c(O)c(O)c(C=O)c2c(O)c1-c1c(C)cc2c(C(C)C)c(O)c(O)c(C=O)c2c1O` (tested in a mixture with another compound): the GI50 in [1] was 0.468 µM; in assay [2], 0.966 µM; in assay [3] it was 0.484 µM; in assay [4], 0.535 µM; in [5], 1.5 µM; in assay [6], 1.39 µM. In addition, the GI50 in assay [7] was 0.455 µM; in [8] it was 1 µM; in assay [9], 1.64 µM; in assay [10] it was 0.686 µM. Moreover, the TGI came out at 2.38 µM in [1]; 4.81 µM in assay [2]; 1.76 µM in assay [3]; 5.74 µM in assay [4]; 3.61 µM in assay [5]; 4.95 µM in assay [6]. For the same molecule, the TGI is 3.42 µM in assay [7], 2.52 µM in assay [8], 4.07 µM in [9] and 9.47 µM in [10].

On to `CC[C@@]1(OC(=O)CN)C(=O)OCc2c1cc1n(c2=O)Cc2cc3c(N)c4c(cc3nc2-1)OCO4`, for which the GI50 is 0.000195 µM in assay [1]; < 0.0001 µM in [2]; 0.0116 µM in assay [3]; < 0.0001 µM in [4]; < 0.0001 µM in assay [5]; < 0.0001 µM in assay [6]. Besides, the GI50 in assay [7] was 0.0361 µM and 0.0322 µM; in assay [8], 0.00466 µM; in [9], 0.0226 µM; in assay [10] it was 0.000124 µM. In addition, the TGI in assay [1] is 0.233 µM and 1.01 µM; in assay [3], 0.969 µM; in assay [4], 0.111 µM; in assay [5], 0.0139 µM; in assay [6] it was 0.109 µM and 0.0279 µM; in assay [7], > 100 µM. Moreover, the TGI is 0.158 µM in [8], 0.327 µM in assay [9] and > 100 µM in [10].

As for `O=C(NO)c1cnc(N2CCN(S(=O)(=O)c3ccc4ccccc4c3)CC2)nc1`, the GI50 in assay [1] was 0.0459 µM; in assay [2], 0.114 µM; in assay [3], 0.11 µM; in assay [4], 0.0457 µM; in assay [5] it was 0.0468 µM; in assay [6], 0.157 µM. Besides, the GI50 in [7] was 0.078 µM; in assay [8], 0.0399 µM; in assay [9], 0.0345 µM; in assay [10], 0.238 µM. The TGI in assay [1] turned out to be 0.37 µM; in [2], 0.328 µM; in [3], 0.32 µM; in assay [4] it was 29.8 µM; in [5], 5.75 µM; in assay [6], 2.55 µM. In addition, the TGI is > 36 µM in assay [7], 0.208 µM in assay [8], 0.214 µM in assay [9] and 11.8 µM in assay [10].

As for `ClC1=C(Cl)C(Cl)=C(Cl)C1=Cc1ccc(Cl)cc1`, the GI50 in assay [1] was 0.918 µM; in assay [2] it was 0.429 µM; in assay [3] it was 1.14 µM; in assay [4], 1.21 µM; in assay [5], 0.287 µM; in assay [6], 0.389 µM. Besides, the GI50 in [7] was 0.876 µM; in assay [8], 0.267 µM; in [9], 2.13 µM; in assay [10], 1.07 µM. Besides, the TGI in assay [1] is 2.54 µM; in assay [3] it was 2.54 µM; in [4], 5.86 µM; in assay [5], 0.904 µM; in assay [6], 1.86 µM; in [7], 6.5 µM. For the same molecule, the TGI in assay [8] turned out to be 0.842 µM; in [9], 4.35 µM; in assay [10], 2.42 µM.

Regarding `COc1ccc(-n2sc(=O)n(Cc3ccc(COC(=O)C(C)c4ccc(CC(C)C)cc4)cc3)c2=O)cc1` (stereo not drawn), the GI50 was 9.56 µM in assay [1]; 1.36 µM in [2]; 7.99 µM in assay [3]; 1.23 µM in assay [4]; 2.6 µM in [5]; 11.9 µM in assay [6]. Moreover, the GI50 in assay [7] was 5.63 µM; in assay [8], 1.27 µM; in [9], 8.01 µM; in [10], 7.38 µM. Besides, the TGI in assay [1] came out at 25.9 µM; in [2] it was 5.37 µM; in assay [3] it was 17.2 µM; in assay [4], 4.89 µM; in [5], 9.45 µM; in [6], 33.2 µM. The TGI in [7] was 12.8 µM; in assay [8], 3.79 µM; in [9] it was 17 µM; in assay [10] it was 14.5 µM.
